Source: PMC9574860, “Chemical Toolkit for PARK7: Potent, Selective, and High-Throughput” (Journal of Medicinal Chemistry, 2022)

How the values were obtained:
DUBs = experiment: DUB activity profiling in HEK293T cell lysate with general DUB probe Rho-Ub-PA; format: biochemical; conditions: compound 5 μM 1 h 37 °C, then Rho-Ub-PA 30 min, Figure S5
Procedure: Due to the structural similarity of PARK7 inhibitor JYQ-88 and UCHL1 inhibitor 8RK64 and the fact that many cyanimide-containing compounds have been identified as DUB inhibitors,[35],[37] we investigated the inhibitory potential of JYQ-88 and JYQ-92 toward DUBs. After treating the HEK293T cell lysate with JYQ-88 and JYQ-92, along with UCHL1 inhibitors, 6RK73 and 8RK64 as controls,[38] the remaining activity of DUBs was determined using the general DUB probe Rho-Ub-PA (Figure S5).[39]
Figure S5. Fluorescence labeling of DUBs to investigate their remaining activity by Rh-Ub-
PA after the treatment with PARK7 inhibitor JYQ-88 and probe JYQ-92. UCHL1 inhibitors,
6RK73 and 8RK64, were used as a control. HEK293T cell lysate was treated with 5 μM final
MOPS SDS running buffer (Novex, NuPAGE) and visualized by fluorescence scanning on a
Typhoon FLA 9500 (GE Healthcare Life Sciences) using a Rhodamine channel (λex/em
(1 picture or pasted object on this page, not shown here)

PARK7 [1] = biological target: T1, PARK7 (Homo sapiens, UniProt Q99497); experiment: Probe labeling of purified recombinant PARK7 (SDS-PAGE, fluorescence scanning); format: binding; design: GST (N, cleaved yes); made in house; host or cells: E. coli BL21(DE3) Rosetta2; conditions: for Probe concentration from which PARK7 labeling was observed: purified PARK7 1 μM, 1 h 37 °C, Figure 4A
T1 sequence (Q99497 1-189): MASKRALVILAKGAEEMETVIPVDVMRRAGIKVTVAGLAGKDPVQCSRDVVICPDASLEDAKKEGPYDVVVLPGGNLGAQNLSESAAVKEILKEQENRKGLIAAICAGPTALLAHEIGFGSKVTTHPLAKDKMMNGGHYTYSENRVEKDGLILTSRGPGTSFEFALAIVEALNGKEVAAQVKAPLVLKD
Source text: PARK7 inhibitor JYQ-88 was further converted into activity-based probes by installing SulfoCy5, Rhodamine110, or BodipyFL. We took advantage of the azide moiety in JYQ-88 and conjugated alkyne versions of these dyes using the copper(I)-catalyzed azide alkyne cycloaddition (CuAAC) to obtain compounds JYQ-92, JYQ-93, and JYQ-107 (Scheme 2). We next investigated the ability of the probes to label and visualize PARK7. […] The SulfoCy5 probe JYQ-92 and Rhodamine110 probe JYQ-107 labeled PARK7 already at 1 μM, while the BodipyFL probe JYQ-93 was less efficient than the other probes as PARK7 labeling was only observed from 5 μM.
All the labeling assays were performed in Tris buffer (50 mM Tris–HCl, 150 mM NaCl, 2 mM TCEP, pH 7.5). For labeling with the 8RK59 probe, 1 μM final concentrations of UCHL1 and PARK7 were individually or together incubated with 2 μM final concentrations of 8RK59 for 30 min at 37 °C, followed by protein visualization. For labeling with JYQ-92, JYQ-93, and JYQ-107, 1 μM final concentration of PARK7 was incubated with different concentrations (0, 0.1, 0.5, 1, 2, 5, and 10 μM) of the indicated probes for 1 h at 37 °C. […] These samples were resolved by SDS-PAGE using precast Bis-Tris gels (Invitrogen, NuPAGE) with MES SDS running buffer (Novex, NuPAGE).

UCHL1 [2] = biological target: T2, UCHL1 (Homo sapiens, UniProt P09936); experiment: UCHL1 activity assay (Ub-Rho-Morpholine or Ub-AMC substrate); format: biochemical; conditions: UCHL1 1 nM, 1 h preincubation; read-out: UbRhoMP assay UCHL1 IC50
T2 sequence (P09936 1-223): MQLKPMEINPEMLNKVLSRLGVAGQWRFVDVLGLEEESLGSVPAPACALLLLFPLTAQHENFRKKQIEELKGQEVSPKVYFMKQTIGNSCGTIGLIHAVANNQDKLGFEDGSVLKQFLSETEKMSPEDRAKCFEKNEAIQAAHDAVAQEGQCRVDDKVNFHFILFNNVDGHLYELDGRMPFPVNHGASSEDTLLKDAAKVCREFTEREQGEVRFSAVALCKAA
Procedure: The assay was performed in a buffer containing 50 mM Tris·HCl, 100 mM NaCl at pH 7.5, 2.0 mM cysteine, 1 mg/mL 3-[(3-cholamidopropyl)dimethylammonio]propanesulfonic acid (CHAPS), and 0.5 mg/mL bovine serum albumin and conducted in a 384-well plate (Corning 3820) with a reaction volume 20 μL in triplicate. The compounds were dissolved in DMSO as 10, 1, and 0.1 mM stock solutions and were transferred to obtain a 12-point serial dilution of 0.05 to 200 μM. Next, UCHL1 (15 μL, final concentration of 1 nM) was dispensed with a Biotek MultiFlowFX liquid dispenser and incubated for 1 h, followed by dispensing the substrate Ub-Rho-Morpholine or Ub-AMC (5 μL, final concentration of 400 nM). The FI signal was monitored with a BMG Labtech PHERAstar plate reader (λex/em 487/535 nm or λex/em 350/450 nm) for 1 h. N-Ethylmaleimide (NEM, 10 mM) was used as a positive control (100% inhibition), and DMSO was used as a negative control (0% inhibition). All samples were normalized to the positive and negative controls and plotted against the inhibitor concentrations (in μM) using the built-in equation “[inhibitor] vs response – variable slope (four parameters), least-squares fit” with constraints “Bottom = 0” and “Top = 100” in GraphPad Prism 9.0.1 software to obtain the IC50 values.

PARK7 [3] = biological target: T1, PARK7; experiment: Probe JYQ-92 labeling of endogenous PARK7 in HEK293T cell lysate; conditions: 0–5 μM probe, 1 h, Figure 4C
Procedure: (§1) We next investigated the ability of JYQ-92 to label PARK7 activity in HEK293T cell lysates by treating with the increasing concentration of JYQ-92 (0–5 μM) for 1 h. […] To study its specificity toward PARK7 compared to UCHL1 in more detail, HEK293T cell lysates where we knockdown PARK7 or UCHL1 were treated with 1 μM final concentration of JYQ-92.
(§2) The samples were kept on ice and sonicated using 10 cycles of 30 s pulse on and 30 s pulse off (Bioruptor, Diagenode). […] For the labeling experiments, the prepared cell lysate was incubated with an indicated concentration of JYQ-92 in each experiment for 1 h at 37 °C. The reactions were stopped by adding NuPAGE LDS sample buffer (4×).

UCHL1 [4] = biological target: T2, UCHL1; experiment: JYQ-92 labeling in HEK293T cell lysate with UCHL1 knockdown; conditions: HEK293T lysate with PARK7 or UCHL1 knockdown, probe 1 μM; Figure 4D
Procedure: as §1, §2

PARK7 [5] = biological target: T1, PARK7; experiment: FP binding saturation experiment, kinact/KI of probe JYQ-107; design: GST (N, cleaved yes); made in house; host or cells: E. coli BL21(DE3) Rosetta2; conditions: FP probe binding to PARK7 (0 to 5 μM); slope of kobs vs PARK7 concentration; Figure S6D
Procedure: First, the relation between the change in FP values for JYQ-107 binding to PARK7 was determined. We used a fixed concentration (20 nM) of JYQ-107, incubated it with different amounts of PARK7 (0 to 5 μM), and monitored the FP signal (λex/em 485/520 nm) over time (Supporting Information Figure S6A). The change in FP (ΔmP) was plotted against PARK7 concentration after different incubation times (Figure 5B, left, Supporting Information Figure S6B). […] The latter is expected, as covalent complex formation has a time-dependency, and thus, equilibrium binding values could not be determined for the FP reagent.[45] […] To this end, we calculated the Z’ value, a critical parameter used to assess the quality and HTS suitability of a given assay, for the used PARK7 concentrations and incubation times (Figure 5B, right, Supporting Information Figure S6C).[46] […]
This assay was performed in the buffer containing 50 mM Tris–HCl, 150 mM NaCl, 2 mM TCEP, pH 7.5, and 1 mg/mL CHAPS and conducted in a 384-well plate (Corning 3820) with a reaction volume 20 μL in triplicate. A serial dilution of PARK7 from 0 to 5 μM (final concentration) was mixed with constant concentration JYQ-107 ([…]), and the increasing FP signal over time was measured at λex/em 480/520 nm using a PHERAstar (BMG Labtech) for 150 min. […]

| Compound | Effect on remaining DUB activity (Rho-Ub-PA labeled bands) (DUBs) | Binding to wild-type PARK7 (PARK7 [1]; probe 2 μM, 1 h, Figure 4B) | Probe concentration from which PARK7 labeling was observed (PARK7 [1]) [µM] | IC50 (UCHL1 [2]) [µM] | Probe concentration at which a clear PARK7 band (20 kDa) was observed (PARK7 [3]) [µM] | Binding to UCHL1 in the cell lysate (UCHL1 [4]) | kinact/KI (PARK7 [5]) [M⁻¹ s⁻¹] |
| --- | --- | --- | --- | --- | --- | --- | --- |
| CC[N+]1=C(/C=C/C=C/C=C2/N(CCCCCC(=O)NCCCc3cn(CC(=O)N4CCc5nc(NC(=O)[C@@H]6CCN(C#N)C6)sc5C4)nn3)c3ccc(S(=O)(=O)O)cc3C2(C)C)C(C)(C)c2cc(S(=O)(=O)[O-])ccc21 [JYQ-92] | no influence on DUB activity | only binds to the active wild-type PARK7 | 1 | 19.8 | 0.5 | not to UCHL1 |  |
| N#CN1CC[C@@H](C(=O)Nc2nc3c(s2)CN(C(=O)Cn2cc(CCCNC(=O)c4ccc(-c5c6ccc(=N)cc-6oc6cc(N)ccc56)c(C(=O)O)c4)nn2)CC3)C1 [JYQ-107] |  |  | 1 | 18.5 |  |  | 1180 |
